Where a SMILES comes first, the peptide text is derived from it. Bridges are numbered along the chain shown (N, C = ends). [ ]: non-standard residue; d: D form. hPhe(3,5-F2-4-CF3) = N[C@@H](CCc1cc(F)c(C(F)(F)F)c(F)c1)C(=O)O; NPrPhe(4-CF3) = CCCN[C@@H](Cc1ccc(C(F)(F)F)cc1)C(=O)O; NMeAbu(4,4,4-F3) = CN[C@@H](CC(F)(F)F)C(=O)O; NMeD = CN[C@@H](CC(=O)O)C(=O)O; NMeL = CN[C@@H](CC(C)C)C(=O)O; Ac5c = NC1(C(=O)O)CCCC1; Sar = CNCC(=O)O
What was measured:
[1] = molecular target: GDP-bound NRAS wild-type protein (Homo sapiens, UniProt P01111); test: Binding to NRAS by surface plasmon resonance (SPR), Single Cycle Kinetics; details: for NRAS/KRAS (ratio of KD value with respect to NRAS to KD value with respect to KRAS): GDP-bound NRAS wild-type vs GDP-bound KRAS wild-type
[2] = molecular target: GDP-bound HRAS wild-type protein (Homo sapiens, UniProt P01112); test: Binding to HRAS by surface plasmon resonance (SPR), Single Cycle Kinetics; details: for HRAS/KRAS (ratio of KD value with respect to HRAS to KD value with respect to KRAS): GDP-bound HRAS wild-type vs GDP-bound KRAS wild-type
Chain of GDP-bound HRAS wild-type protein (P01112 whole entry): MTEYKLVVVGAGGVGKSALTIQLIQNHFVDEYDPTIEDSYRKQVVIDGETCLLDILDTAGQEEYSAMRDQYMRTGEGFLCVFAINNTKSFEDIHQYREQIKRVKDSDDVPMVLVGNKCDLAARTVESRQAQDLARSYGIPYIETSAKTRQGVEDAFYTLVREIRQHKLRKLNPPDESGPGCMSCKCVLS

Chain of GDP-bound NRAS wild-type protein (P01111 whole entry): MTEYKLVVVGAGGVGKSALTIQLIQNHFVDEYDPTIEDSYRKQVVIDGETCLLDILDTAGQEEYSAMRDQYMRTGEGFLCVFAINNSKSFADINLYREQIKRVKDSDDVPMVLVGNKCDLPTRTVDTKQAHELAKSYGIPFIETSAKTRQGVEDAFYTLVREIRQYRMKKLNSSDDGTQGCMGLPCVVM

## CCC[C@@H]1C[C@H]2C(=O)NC3(CCC3)C(=O)N(C)[C@@H](C3CCCC3)C(=O)N(C)[C@H](C(=O)N(C)C)CC(=O)N(C)[C@@H](CCC)C(=O)N[C@@H]([C@@H](C)CC)C(=O)N(C)CC(=O)N(C)[C@H]3C/C=C\CCN(C3=O)[C@@H](Cc3ccc(C)cc3)C(=O)N(C)CC(=O)N[C@@H](CCc3ccc(C(F)(F)F)c(Cl)c3)C(=O)N2C1 [PP2238]
[1]; SPR
  NRAS/KRAS (ratio of KD value with respect to NRAS to KD value with respect to KRAS): A (a compound having 10 or more and less than 20 is denoted as A)
[2]; SPR
  HRAS/KRAS (ratio of KD value with respect to HRAS to KD value with respect to KRAS): A (a compound having 10 or more and less than 20 is denoted as A)

## CCCOC[C@H]1C(=O)N[C@@H]([C@@H](C)CC)C(=O)N(C)CC(=O)N(C)[C@H]2C/C=C\CCN(C2=O)[C@@H](CC2CCC(F)(F)CC2)C(=O)N(C)CC(=O)N[C@@H](CCc2ccc(C(F)(F)F)c(OC)c2)C(=O)N2C[C@@H](C)C[C@H]2C(=O)NC2(CC(C)(C)C2)C(=O)N(C)[C@@H](C(CC)CC)C(=O)N(C)[C@H](C(=O)N(C)C)CC(=O)N1C [PP2483]
[1]; SPR
  NRAS/KRAS (ratio of KD value with respect to NRAS to KD value with respect to KRAS): A (a compound having 10 or more and less than 20 is denoted as A)
[2]; SPR
  HRAS/KRAS (ratio of KD value with respect to HRAS to KD value with respect to KRAS): A (a compound having 10 or more and less than 20 is denoted as A)

## CC[C@H](C)[C@@H]1NC(=O)[C@@H]2CCC/C=C/c3ccc(cc3)C[C@@H](C(=O)N(C)CC(=O)N[C@@H](CCc3ccc(Cl)c(Cl)c3)C(=O)N3CCC[C@H]3C(=O)NC3(CC(C)(C)C3)C(=O)N(C)[C@@H](C3CCCC3)C(=O)N(C)[C@H](C(=O)N(C)CC)CC(=O)N2C)N2CC/C=C\C[C@@H](C2=O)N(C)C(=O)CN(C)C1=O [PP2601]
[1]; class symbols
  NRAS/KRAS (ratio of KD value with respect to GDP-bound NRAS wild-type protein to KD value with respect to KRAS): A (a compound having 10 or more and less than 20 is denoted as A)
[2]; class symbols
  HRAS/KRAS (ratio of KD value with respect to GDP-bound HRAS wild-type protein to KD value with respect to KRAS): A (a compound having 10 or more and less than 20 is denoted as A)

## CC[C@H](C)[C@@H]1NC(=O)[C@H](COC)N(C)C(=O)C[C@@H](C(=O)N(C)CC)N(C)C(=O)[C@H](C2CCCC2)N(C)C(=O)C2(CC(C)(C)C2)NC(=O)[C@@H]2C[C@H](C)CN2C(=O)[C@H](CCc2ccc(C(F)(F)F)c(Cl)c2)NC(=O)CN(C)C(=O)[C@H](Cc2ccc(C)cc2)N2CC/C=C\C[C@@H](C2=O)N(C)C(=O)CN(C)C1=O [PP2506]
[1]; SPR
  NRAS/KRAS (ratio of KD value with respect to NRAS to KD value with respect to KRAS): A (a compound having 10 or more and less than 20 is denoted as A)
[2]; SPR
  HRAS/KRAS (ratio of KD value with respect to HRAS to KD value with respect to KRAS): A (a compound having 10 or more and less than 20 is denoted as A)

## CC[C@H](C)[C@@H]1NC(=O)[C@H](CC(C)C)N(C)C(=O)C[C@@H](C(=O)N2CCOCC2)N(C)C(=O)[C@H](C2CCCC2)N(C)C(=O)C2(CCC2)NC(=O)[C@@H]2C[C@@H](C(F)(F)F)CN2C(=O)[C@H](CCc2cc(F)c(C(F)(F)F)c(F)c2)NC(=O)CN(C)C(=O)[C@H](Cc2ccc(C(F)(F)F)cc2)N2CCCCC[C@@H](C2=O)N(C)C(=O)CN(C)C1=O [PP0818]
[1]; KD ratio, SPR
  NRAS/KRAS (ratio of KD value with respect to NRAS to KD value with respect to KRAS): B (a compound having 3 or more and less than 10 is denoted as B)
[2]; KD ratio, SPR
  HRAS/KRAS (ratio of KD value with respect to HRAS to KD value with respect to KRAS): B (a compound having 3 or more and less than 10 is denoted as B)

## CCC(CC)[C@H]1C(=O)N(C)[C@H](C(=O)N(C)C)CC(=O)N(C)[C@@H](COC)C(=O)N[C@@H]([C@@H](C)CC)C(=O)N(C)CC(=O)N(C)[C@H]2C/C=C\CCN(C2=O)[C@@H](Cc2ccc(C(F)(F)F)cc2)C(=O)N(C)CC(=O)N[C@@H](CCc2cc(F)c(C(F)(F)F)c(F)c2)C(=O)N2CCOC[C@H]2C(=O)NC2(CC(C)(C)C2)C(=O)N1C [PP2917]
[1]; class symbols
  NRAS/KRAS (ratio of KD value with respect to GDP-bound NRAS wild-type protein to KD value with respect to KRAS): AA (a compound having 20 or more is denoted as AA)
[2]; class symbols
  HRAS/KRAS (ratio of KD value with respect to GDP-bound HRAS wild-type protein to KD value with respect to KRAS): A (a compound having 10 or more and less than 20 is denoted as A)

## CCO[C@@H]1C[C@H]2C(=O)NC3(CC(C)(C)C3)C(=O)N(C)[C@@H](C(CC)CC)C(=O)N(C)[C@H](C(=O)N3CCCC3)CC(=O)N(C)[C@@H](COC)C(=O)N[C@@H]([C@@H](C)CC)C(=O)N(C)CC(=O)N(C)[C@H]3C/C=C\CCN(C3=O)[C@@H](Cc3ccc(C(F)(F)F)cc3)C(=O)N(C)CC(=O)N[C@@H](CCc3cc(F)c(C(F)(F)F)c(F)c3)C(=O)N2C1 [PP2123]
[1]; SPR
  NRAS/KRAS (ratio of KD value with respect to NRAS to KD value with respect to KRAS): A (a compound having 10 or more and less than 20 is denoted as A)
[2]; SPR
  HRAS/KRAS (ratio of KD value with respect to HRAS to KD value with respect to KRAS): A (a compound having 10 or more and less than 20 is denoted as A)

## CCO[C@@H]1C[C@H]2C(=O)NC3(CCC3)C(=O)N(C)[C@@H](C3CCCC3)C(=O)N(C)[C@H](C)CC(=O)N(C)[C@@H](CC)C(=O)N[C@@H]([C@@H](C)CC)C(=O)N(C)CC(=O)N(C)[C@H]3C/C=C\CCN(C3=O)[C@@H](Cc3ccc(C(F)(F)F)cc3)C(=O)N(C)CC(=O)N[C@@H](CCc3cc(F)c(C(F)(F)F)c(F)c3)C(=O)N2C1 [PP1095]
[1]; KD ratio, SPR
  NRAS/KRAS (ratio of KD value with respect to NRAS to KD value with respect to KRAS): B (a compound having 3 or more and less than 10 is denoted as B)
[2]; KD ratio, SPR
  HRAS/KRAS (ratio of KD value with respect to HRAS to KD value with respect to KRAS): B (a compound having 3 or more and less than 10 is denoted as B)

## CCCN1C(=O)CN(C)C(=O)CN(C)C(=O)[C@H]([C@@H](C)CC)NC(=O)[C@H](CC(C)C)N(C)C(=O)C[C@@H](C(=O)N(C)C)N(C)C(=O)[C@H](CC(F)(F)F)N(C)C(=O)C2(CCCC2)NC(=O)[C@@H]2CCCN2C(=O)[C@H](CCc2cc(F)c(C(F)(F)F)c(F)c2)NC(=O)CN(C)C(=O)[C@@H]1Cc1ccc(C(F)(F)F)cc1 [PP0746] ([NMeL]I[Sar][Sar][NPrPhe(4-CF3)][Sar][hPhe(3,5-F2-4-CF3)]P[Ac5c][NMeAbu(4,4,4-F3)][NMeD]-NMe2; lactam N-11)
[1]; SPR
  NRAS/KRAS (ratio of KD value with respect to GDP-bound NRAS wild-type protein to KD value with respect to KRAS): B (a compound having 3 or more and less than 10 is denoted as B)
[2]; SPR
  HRAS/KRAS (ratio of KD value with respect to GDP-bound HRAS wild-type protein to KD value with respect to KRAS): C (A compound having a KD ratio of 0.1 or more and less than 3 is denoted as C)

## CCO[C@@H]1C[C@H]2C(=O)NC3(CC(C)(C)C3)C(=O)N(C)[C@@H](C3CCCC3)C(=O)N(C)[C@H](C(=O)N3CCCCC3)CC(=O)N(C)[C@H]3CCC/C=C/c4ccc(cc4)C[C@@H](C(=O)N(C)CC(=O)N[C@@H](CCc4ccc(Cl)c(Cl)c4)C(=O)N2C1)N1CC/C=C\C[C@@H](C1=O)N(C)C(=O)CN(C)C(=O)[C@H]([C@@H](C)CC)NC3=O [PP2578]
[1]; class symbols
  NRAS/KRAS (ratio of KD value with respect to GDP-bound NRAS wild-type protein to KD value with respect to KRAS): AA (a compound having 20 or more is denoted as AA)
[2]; class symbols
  HRAS/KRAS (ratio of KD value with respect to GDP-bound HRAS wild-type protein to KD value with respect to KRAS): A (a compound having 10 or more and less than 20 is denoted as A)

Reference: patent US20250230193A1, “CYCLIC COMPOUND HAVING SELECTIVE KRAS INHIBITORY EFFECT ON HRAS AND NRAS” (CHUGAI SEIYAKU KABUSHIKI KAISHA, priority 2022, published 2025)
